Results published in US20140315889A1, “HYDROXAMATE DERIVATIVES FOR HDAC INHIBITOR, AND THE PHARMACEUTICAL COMPOSITION COMPRISING THEREOF” (CHONG KUN DANG PHARMACEUTICAL CORP., priority 2011, published 2014).
Values belong to the molecule of their own block, whether it stands above or below them.

Columns and labels:
Human recombinant HDAC1 = molecular target: T1, Human recombinant HDAC1 (Homo sapiens, UniProt Q13547); assay: HDAC enzyme activity test, HDAC1; type: biochemical; conditions: Table 12; read-out: Inhibition ability (IC50) HDAC1
T1 construct: purchased Enzo Life Science Co. (named for the kit; assigned to the enzyme from the BML- catalogue prefix) BML-SE456
Experimental: (§1) Then, 0.3 μg of enzyme and 10 μM of substrate per well were added, reacted at 30° C. for 60 minutes. Thereto, Fluor de Lys® Developer II (BML-KI176) was added and reacted for 30 minutes. […] From the data, the respective IC50 were calculated by GraphPad Prism 4.0 program.

human recombinant HDAC6 = molecular target: T2, human recombinant HDAC6 (Homo sapiens, UniProt Q9UBN7); assay: HDAC enzyme activity test, HDAC6; type: biochemical; conditions: for Selectivity for HDAC6, HD1/HD6 / IC50: Table 12; for Selectivity for HDAC6, HD1/HD6: ratio HDAC1 IC50 / HDAC6 IC50; for IC50: read-out: Inhibition ability (IC50) HDAC6
T2 construct: purchased Calibiochem Co. (so in the source) 382180
T2 sequence (Q9UBN7 1-1215): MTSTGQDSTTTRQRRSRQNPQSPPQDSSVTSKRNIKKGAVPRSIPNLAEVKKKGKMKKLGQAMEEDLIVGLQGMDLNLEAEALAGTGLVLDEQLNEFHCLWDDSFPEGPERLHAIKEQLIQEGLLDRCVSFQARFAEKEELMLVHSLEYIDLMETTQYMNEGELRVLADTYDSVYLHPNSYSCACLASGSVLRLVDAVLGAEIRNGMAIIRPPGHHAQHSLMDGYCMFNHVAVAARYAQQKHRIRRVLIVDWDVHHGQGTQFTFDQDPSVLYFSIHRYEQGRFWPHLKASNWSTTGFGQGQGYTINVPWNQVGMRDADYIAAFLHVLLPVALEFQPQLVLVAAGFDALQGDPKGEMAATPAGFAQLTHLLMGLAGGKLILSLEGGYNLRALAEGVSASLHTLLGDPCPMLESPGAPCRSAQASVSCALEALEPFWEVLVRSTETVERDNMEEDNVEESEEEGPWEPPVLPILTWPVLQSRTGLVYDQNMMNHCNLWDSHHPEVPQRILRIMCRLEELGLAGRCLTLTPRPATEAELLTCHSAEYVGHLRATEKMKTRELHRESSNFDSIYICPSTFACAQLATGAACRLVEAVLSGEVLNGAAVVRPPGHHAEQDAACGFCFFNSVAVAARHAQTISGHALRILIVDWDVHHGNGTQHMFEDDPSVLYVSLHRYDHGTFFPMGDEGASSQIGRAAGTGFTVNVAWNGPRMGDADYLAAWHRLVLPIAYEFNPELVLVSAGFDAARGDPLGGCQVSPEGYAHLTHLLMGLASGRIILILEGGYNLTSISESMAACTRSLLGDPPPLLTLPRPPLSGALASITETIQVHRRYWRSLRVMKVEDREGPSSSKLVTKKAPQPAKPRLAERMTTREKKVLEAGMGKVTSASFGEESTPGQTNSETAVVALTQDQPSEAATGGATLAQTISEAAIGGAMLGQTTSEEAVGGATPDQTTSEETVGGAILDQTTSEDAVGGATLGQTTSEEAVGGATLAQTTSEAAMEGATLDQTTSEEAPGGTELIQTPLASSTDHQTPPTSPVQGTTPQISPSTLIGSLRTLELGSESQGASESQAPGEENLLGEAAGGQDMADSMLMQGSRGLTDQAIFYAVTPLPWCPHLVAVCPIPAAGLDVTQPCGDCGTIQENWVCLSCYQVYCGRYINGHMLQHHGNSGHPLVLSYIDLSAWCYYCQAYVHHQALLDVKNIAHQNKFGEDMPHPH
Experimental: as §1

T1 sequence (Q13547 whole entry): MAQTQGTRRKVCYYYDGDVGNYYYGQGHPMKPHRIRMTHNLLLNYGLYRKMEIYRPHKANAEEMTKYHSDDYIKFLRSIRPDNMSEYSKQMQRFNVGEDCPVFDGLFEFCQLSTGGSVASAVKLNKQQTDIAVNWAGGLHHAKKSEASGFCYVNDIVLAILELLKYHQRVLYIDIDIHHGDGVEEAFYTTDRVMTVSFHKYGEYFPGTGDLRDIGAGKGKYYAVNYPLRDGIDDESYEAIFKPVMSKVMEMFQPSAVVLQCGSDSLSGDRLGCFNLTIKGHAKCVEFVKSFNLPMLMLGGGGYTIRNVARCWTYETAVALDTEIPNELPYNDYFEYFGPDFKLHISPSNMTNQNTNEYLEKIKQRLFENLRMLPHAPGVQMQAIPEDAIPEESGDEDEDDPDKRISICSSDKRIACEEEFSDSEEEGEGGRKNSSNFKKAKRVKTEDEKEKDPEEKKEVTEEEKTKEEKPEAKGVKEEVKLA

Compound: CN1CCN(CCN2CCc3c(c4ccccc4n3Cc3ccc(C(=O)NO)cc3)C2=O)CC1 [Compound 251, N-hydroxy-4-((2-(2-(4-methylpiperazin-1-yl)ethyl)-1-oxo-1,2,3,4-tetrahydropyrido[4,3-b]indol-5-yl)methyl)benzamide]
IC50 (Human recombinant HDAC1): 1450 nM | Selectivity for HDAC6, HD1/HD6 (human recombinant HDAC6): 820.3 | IC50 (human recombinant HDAC6): 1.77 nM

Compound: O=C(NO)c1ccc(Cn2c3c(c4cc(F)ccc42)C(=O)N(CCN2CCOCC2)CC3)cc1 [Compound 266]
IC50 (Human recombinant HDAC1): 2910 nM | Selectivity for HDAC6, HD1/HD6 (human recombinant HDAC6): 2851 | IC50 (human recombinant HDAC6): 1.02 nM

Compound: O=C(NO)c1ccc(Cn2c3c(c4ccccc42)C(=O)N(CCN2CCC[C@H]2CO)CC3)cc1 [Compound 267, (S)—N-hydroxy-4-((2-(2-(2-(hydroxymethyl)pyrrolidin-1-yl)ethyl)-1-oxo-1,2,3,4-tetrahydropyrido[4,3-b]indol-5-yl)methyl)benzamide]
IC50 (Human recombinant HDAC1): 2270 nM | Selectivity for HDAC6, HD1/HD6 (human recombinant HDAC6): 678.8 | IC50 (human recombinant HDAC6): 3.35 nM

IC50 (Human recombinant HDAC1): 6050 nM | Selectivity for HDAC6, HD1/HD6 (human recombinant HDAC6): 448.4 | IC50 (human recombinant HDAC6): 13.5 nM
Compound: Cc1c2c(n(Cc3ccc(C(=O)NO)cc3)c1C)CCC(CN1CCOCC1)C2=O (stereo not shown) [Compound 268, 4-((2,3-dimethyl-5-(morpholinomethyl)-4-oxo-4,5,6,7-tetrahydroindol-1-yl)methyl)-N-hydroxybenzamide]

Compound: O=C(NO)c1ccc(Cn2c3c(c4cc(F)ccc42)C(=O)C(CN2CC[C@@H](F)C2)CC3)cc1 (stereo partly drawn) [Compound 283, 4-((6-fluoro-3-(((R)-3-fluoropyrrolidin-1-yl)methyl)-4-oxo-1,2,3,4-tetrahydrocarbazol-9-yl)methyl)-N-hydroxybenzamide]
IC50 (Human recombinant HDAC1): 11800 nM | Selectivity for HDAC6, HD1/HD6 (human recombinant HDAC6): 1420.6 | IC50 (human recombinant HDAC6): 8.29 nM

Compound: COCCN1CCN(CC2CCc3c(c4cc(F)ccc4n3Cc3ccc(C(=O)NO)cc3)C2=O)CC1 (stereo not shown) [Compound 284, 4-((6-fluoro-3-((4-(2-methoxyethyl)piperazin-1-yl)methyl)-4-oxo-1,2,3,4-tetrahydrocarbazol-9-yl)methyl)-N-hydroxybenzamide]
IC50 (Human recombinant HDAC1): 10700 nM | Selectivity for HDAC6, HD1/HD6 (human recombinant HDAC6): 1435.7 | IC50 (human recombinant HDAC6): 7.47 nM

Compound: COC[C@@H]1CCCN1CCN1CCc2c(c3cc(F)ccc3n2Cc2ccc(C(=O)NO)cc2)C1=O [Compound 285, (S)-4-((8-fluoro-2-(2-(2-(methoxymethyl)pyrrolidin-1-yl)ethyl)-1-oxo-1,2,3,4-tetrahydropyrido[4,3-b]indol-5-yl)methyl)-N-hydroxybenzamide]
IC50 (Human recombinant HDAC1): 13200 nM | Selectivity for HDAC6, HD1/HD6 (human recombinant HDAC6): 588.2 | IC50 (human recombinant HDAC6): 22.5 nM

Compound: O=C(NO)c1ccc(Cn2c3c(c4cc(F)ccc42)C(=O)N(CCN2CCC(CO)CC2)CC3)cc1 [Compound 286, 4-((8-fluoro-2-(2-(4-(hydroxymethyl)piperidin-1-yl)ethyl)-1-oxo-1,2,3,4-tetrahydropyrido[4,3-b]indol-5-yl)methyl)-N-hydroxybenzamide]
IC50 (Human recombinant HDAC1): 10600 nM | Selectivity for HDAC6, HD1/HD6 (human recombinant HDAC6): 607 | IC50 (human recombinant HDAC6): 17.4 nM

Compound: CN1CCN(CCN2CCc3c(c4cc(F)ccc4n3Cc3ccc(C(=O)NO)cc3)C2=O)CC1 [Compound 287, 4-((8-fluoro-2-(2-(4-methylpiperazin-1-yl)ethyl)-1-oxo-1,2,3,4-tetrahydropyrido[4,3-b]indol-5-yl)methyl)-N-hydroxybenzamide]
IC50 (Human recombinant HDAC1): 8200 nM | Selectivity for HDAC6, HD1/HD6 (human recombinant HDAC6): 715.1 | IC50 (human recombinant HDAC6): 11.5 nM

Compound: O=C(NO)c1ccc(Cn2c3c(c4cc(F)ccc42)C(=O)N(CCN2CCN(CCO)CC2)CC3)cc1 [Compound 288, 4-((8-fluoro-2-(2-(4-(2-hydroxyethyl)piperazin-1-yl)ethyl)-1-oxo-1,2,3,4-tetrahydropyrido[4,3-b]indol-5-yl)methyl)-N-hydroxybenzamide]
IC50 (Human recombinant HDAC1): 7510 nM | Selectivity for HDAC6, HD1/HD6 (human recombinant HDAC6): 708.9 | IC50 (human recombinant HDAC6): 10.6 nM

Compound: O=C(NO)c1ccc(Cn2c3c(c4cc(F)ccc42)C(=O)N(CCN2CCC[C@@H]2CO)CC3)cc1 [Compound 289, (R)-4-((8-fluoro-2-(2-(2-(hydroxymethyl)pyrrolidin-1-yl)ethyl)-1-oxo-1,2,3,4-tetrahydropyrido[4,3-b]indol-5-yl)methyl)-N-hydroxybenzamide]
IC50 (Human recombinant HDAC1): 7980 nM | Selectivity for HDAC6, HD1/HD6 (human recombinant HDAC6): 691.2 | IC50 (human recombinant HDAC6): 11.5 nM

Compound: O=C(NO)c1ccc(Cn2c3c(c4cc(F)ccc42)C(=O)N(CCN2CCC[C@H]2CO)CC3)cc1 [Compound 290, (S)-4-((8-fluoro-2-(2-(2-(hydroxymethyl)pyrrolidin-1-yl)ethyl)-1-oxo-1,2,3,4-tetrahydropyrido[4,3-b]indol-5-yl)methyl)-N-hydroxybenzamide]
IC50 (Human recombinant HDAC1): 6410 nM | Selectivity for HDAC6, HD1/HD6 (human recombinant HDAC6): 2925.1 | IC50 (human recombinant HDAC6): 2.19 nM | selectivity for HDAC6 over HDAC1 (human recombinant HDAC6; from the data of Table 12): more than 2,900 times

Compound: CN1CCCN(CCN2CCc3c(c4cc(F)ccc4n3Cc3ccc(C(=O)NO)cc3)C2=O)CC1 [Compound 291, 4-((8-fluoro-2-(2-(4-methyl-1,4-diazepan-1-yl)ethyl)-1-oxo-1,2,3,4-tetrahydropyrido[4,3-b]indol-5-yl)methyl)-N-hydroxybenzamide]
IC50 (Human recombinant HDAC1): 7920 nM | Selectivity for HDAC6, HD1/HD6 (human recombinant HDAC6): 426.3 | IC50 (human recombinant HDAC6): 18.6 nM

Compound: CN(CCO)CCN1CCc2c(c3cc(F)ccc3n2Cc2ccc(C(=O)NO)cc2)C1=O [Compound 292, 4-((8-fluoro-2-(2-((2-hydroxyethyl)(methyl)amino)ethyl)-1-oxo-1,2,3,4-tetrahydropyrido[4,3-b]indol-5-yl)methyl)-N-hydroxybenzamide]
IC50 (Human recombinant HDAC1): 10000 nM | Selectivity for HDAC6, HD1/HD6 (human recombinant HDAC6): 781.3 | IC50 (human recombinant HDAC6): 12.8 nM

IC50 (Human recombinant HDAC1): 2450 nM | Selectivity for HDAC6, HD1/HD6 (human recombinant HDAC6): 980.4 | IC50 (human recombinant HDAC6): 2.5 nM
Compound: O=C(NO)c1ccc(Cn2c3ccc(F)cc3c3c(=O)[nH]ccc32)cc1 [Compound 305, 4-((8-fluoro-1-oxo-1,2-dihydropyrido[4,3-b]indol-5-yl)methyl)-N-hydroxybenzamide]

Compound: O=C(NO)c1ccc(Cn2c3c(c4cc(F)ccc42)C(=O)NCC3)cc1 [Compound 306, 4-((8-fluoro-1-oxo-1,2,3,4-tetrahydropyrido[4,3-b]indol-5-yl)methyl)-N-hydroxybenzamide]
IC50 (Human recombinant HDAC1): 3230 nM | Selectivity for HDAC6, HD1/HD6 (human recombinant HDAC6): 1041.9 | IC50 (human recombinant HDAC6): 3.1 nM

Compound: O=C(CCCCCn1c2c(c3cc(F)ccc31)C(=O)C(CN1CCOCC1)CC2)NO (stereo not shown) [Compound 321, 6-(6-fluoro-3-(morpholinomethyl)-4-oxo-1,2,3,4-tetrahydrocarbazol-9-yl)-N-hydroxyhexanamide]
IC50 (Human recombinant HDAC1): 13300 nM | Selectivity for HDAC6, HD1/HD6 (human recombinant HDAC6): 121.8 | IC50 (human recombinant HDAC6): 110 nM

Compound: O=C(CCCCCn1c2c(c3cc(F)ccc31)C(=O)C(CN1CCN(c3ccc(F)cc3)CC1)CC2)NO (stereo not shown) [Compound 322, 6-(6-fluoro-3-((4-(4-fluorophenyl)piperazin-1-yl)methyl)-4-oxo-1,2,3,4-tetrahydrocarbazol-9-yl)-N-hydroxyhexanamide]
IC50 (Human recombinant HDAC1): 7440 nM | Selectivity for HDAC6, HD1/HD6 (human recombinant HDAC6): 40.8 | IC50 (human recombinant HDAC6): 182 nM

Compound: CC1CN(CC2CCc3c(c4cc(F)ccc4n3CCCCCC(=O)NO)C2=O)CC(C)O1 (stereo not shown) [Compound 323, 6-(3-((2,6-dimethylmorpholino)methyl)-6-fluoro-4-oxo-1,2,3,4-tetrahydrocarbazol-9-yl)-N-hydroxyhexanamide]
IC50 (Human recombinant HDAC1): 8970 nM | Selectivity for HDAC6, HD1/HD6 (human recombinant HDAC6): 102.2 | IC50 (human recombinant HDAC6): 87.8 nM

Compound: CC(C)(C)OC(=O)N1CCN(CC2CCc3c(c4cc(F)ccc4n3CCCCCC(=O)NO)C2=O)CC1 (stereo not shown) [Compound 324, tert-butyl 4-((6-fluoro-9-(6-(hydroxyamino)-6-oxohexyl)-4-oxo-2,3,4,9-tetrahydro-1H-carbazol-3-yl)methyl)piperazine-1-carboxylate]
IC50 (Human recombinant HDAC1): 11600 nM | Selectivity for HDAC6, HD1/HD6 (human recombinant HDAC6): 113.2 | IC50 (human recombinant HDAC6): 103 nM

Compound: O=C(CCCCCCn1c2c(c3cc(F)ccc31)C(=O)CCC2)NO [Compound 325, 7-(3-fluoro-5-oxo-5,6,7,8-tetrahydrocarbazol-9-yl)-N-hydroxyheptanamide]
IC50 (Human recombinant HDAC1): 93.8 nM | Selectivity for HDAC6, HD1/HD6 (human recombinant HDAC6): 31.3 | IC50 (human recombinant HDAC6): 3 nM
